Patent EP0032304B1, “Antibiotic compositions” (ELI LILLY AND COMPANY, priority 1979, dated 1981)
Counter-ions that a name gives are not always drawn. Like-named read-outs stand apart in the source and are kept apart here.

Legend:
E. coli = test: 21 day trial in weanling pigs: treatment and control of colibacillosis, weight gain, feed efficiency, diarrhoea; type: in vivo; details: for Diarrhoea index: score 1 (formed stools only) to 5 (liquid stools only), scored twice daily for 13 days and once on the 14th day, 110 ppm in feed; for Percent increase over controls: Reduction of diarrhoea / Percent increase over controls: Average daily weight gain / Percent increase over controls: Improved feed efficiency / Average daily feed / Average daily gain / Feed efficiency: weanling pigs, 21 days; for Percent increase over controls: Reduction of diarrhoea: difference in incidence as percentage of the control incidence; for Percent increase over controls: Average daily weight gain / Percent increase over controls: Improved feed efficiency: vs non-treated control group; for Average daily feed / Average daily gain / Feed efficiency: tylosin phosphate and apramycin sulfate at 110 ppm in feed, combination 110 ppm of each
Source text: Tylosin and apramycin were each administered in the feed at a level of 110 ppm. The antibiotic combination was likewise administered in the feed containing both antibiotics at the 110 ppm level. The results are shown as a percentage increase over a non-treated control group as calculated from the statistical evaluation of the data obtained in the study.
The efficacy of the tylosin-apramycin combination in the treatment and control of colibacillosis is shown by the results obtained in a 21 day trial with weanling pigs. The pigs were divided by weight into treatment and control groups of eight pigs. Each treatment was randomly assigned to three groups. The animals were fed a normal ration ad libitum with the treatment groups receiving feed containing 110 ppm of each antibiotic. Weight gains, feed efficiency and the incidence of diarrhoea were used to measure the response to treatment.
Ninety-six weanling pigs averaging 6.0 kg in weight were randomly allocated by weight into 12 pens of 8 pigs per pen. Four treatments were used in the study as follows: 1) Non-medicated controls; 2) apramycin fed at 110 ppm; 3) tylosin phosphate fed at 110 ppm; and 4) apramycin sulfate and tylosin phosphate both fed at 110 ppm. Each treatment was replicated through three pens.
The pigs were fed for 21 days ad libitum a ration of 20% protein corn-soy meal with some rolled oats included for roughage. Vitamins and minerals were added as needed to balance the ration. The only difference in the rations fed to all pigs was the inclusion of the appropriate antibiotic or antibiotic combination in each of the medicated rations. All feed was weighed as fed, with the feed remaining at the end of the weigh period, weighed and discarded. The pigs were weighed at the initiation of the study and weekly thereafter.
Diarrhoea scores were maintained on a pen basis. The scoring was done by the same person on a twice daily schedule for the first 13 days and once only on the 14th day. The scoring index was the same as that shown in footnote 2 of Table 5.

Swine L3F12F7 = test: Minimal inhibitory concentration vs mycoplasma in contaminated LLC-MK2 tissue culture; type: cell-based; details: Mycoplasmopsis arginini; LLC-MK2 tissue culture contaminated with Swine L3F12F7 (mycoplasma isolated from swine); combinations contain equal amounts of each antibiotic
Protocol: (§1) Suspensions of monkey kidney cells, LLC-MK2, in medium 199 (Morgan et al., Proc. Soc. Exp. Biol. Med, 73, 1 1950), were inoculated with cultures of the indicated mycoplasma to achieve an inoculum concentration of 1.5xlO' organisms/ml of cell suspension. Control cultures and the mycoplasma positive cultures included in each test were incubated at 37°C for 3-5 days. After incubation the medium in all cultures was changed to 1% horse serum in Medium 199 containing 1.68 g of sodium bicarbonates per liter. The tissue cultures innoculated with mycoplasma (except for mycoplasma positive control cultures) were then treated with the indicated individual antibiotics alone or with the combination of antibiotics shown in Table 1. When combinations of antibiotics were tested equal amounts of the antibiotics were used.
(§2) Solutions of the antibiotics were made up in Medium 199 containing 1.68 g of sodium bicarbonate per liter of medium. The solutions were sterile filtered through a millipore filter having a 0.2 µm porosity and were stored at 4°C prior to use. Two fold dilutions of the antibiotic solutions were made and each antibiotic solution was added to separate cultures to determine the minimal inhibitory concentration. The medium in each culture was changed twice a week with fresh antibiotic solution at the same concentration being added at each medium change. After two weeks, medium changes were made without antibiotic for two more weeks. Samples of the cultures were taken before each medium change in the last two weeks and were cultured to determine the presence of mycoplasma.

M. Hyorhinis HEK = test: as above; type: cell-based; details: Mesomycoplasma hyorhinis; LLC-MK2 tissue culture contaminated with M. Hyorhinis HEK (isolate from human embryonic kidney tissue); combinations contain equal amounts of each antibiotic
Protocol: as §1, §2

[1] = system: P. hemolytica strain 41 D; test: In vitro MIC and checkerboard titration of the combination; type: cell-based, Pasturella hemolytica; details: antibiotic alone
Protocol: This organism can cause pneumonia in cattle which in cases of severe infection can lead to death. […] The synergistic activity of the combination of the two antibiotics was determined by the "checkerboard" titration method. In this method two antibiotics are tested in serial dilutions and in all combinations of these dilutions together to find the concentrations of each antibiotic, both alone and in combination, that inhibit growth of the test microorganism. The nature of the interaction between the two antibiotics may be determined algebraically or geometrically. In the algebraic method, the concentration of each antibiotic in the combination that inhibits growth is expressed as a fraction of the concentration that produces the same effect when the antibiotic is used alone. When the sum of these fractions is one, the combination is additive, when the sum is less than one, the combination is synergistic; and when the sum is greater than one, the combination is antagonistic.
Below are shown the calculations using data obtained in the in vitro test of tylosin, apramycin and the combination of the two antibiotics against P. hemolytica.

[2] = 28 day weight gain and feed utilization trial in post weaned pigs; type: in vivo; details: 28 days; for Daily feed intake (Rel) / Daily gain (Rel) / Feed efficiency (Rel) / Final weight (Rel): comparison to negative controls (100), 100 ppm in feed; for Daily feed intake x̄ (kg) per animal / Daily gain x̄ (g) per animal / Feed efficiency x̄ (kg feed/kg gain) / Final weight x̄ (kg) per animal: post weaned pigs, 100 ppm in feed (combination 100 ppm of each); for Final weight x̄ (kg) per animal: mean of two like trials
Protocol: The trials were carried out in pens with 6 pigs per pen for 28 days. The pigs were of mixed sex having an average initial body weight of 12.89 kg and an average age of six weeks. The animals received water before and after feeding. The animals were fed twice daily with feed having the following composition.
The tylosin-apramycin combination was compared in the trials with tylosin alone and with apramycin alone. The antibiotics and the combination thereof were administered in the animal feed at a level of 100 ppm, and, in the case of the combination; at 100 ppm for each antibiotic.

M. Hyorhinis HH = test: Minimal inhibitory concentration vs mycoplasma in contaminated LLC-MK2 tissue culture; type: cell-based, Mycoplasma hyorhinis; details: for MIC: Mesomycoplasma hyorhinis
Protocol: as §1, §2
Cell suspensions of LLC-MK2 (Monkey kidney cell line) in Medium 199 containing 1% house serum of 4 ml volumes in tissue culture flasks were inoculated with a 3 day old culture of Mycoplasma hyorhinis (5 x 10^8 organism per ml in Eaton's broth). Approximately 2 to 3% of the mycoplasma culture per volume of the cell suspension was used. After inoculation the cell suspensions were incubated at a temperature of 37°C for from three to five days. Control cultures were also made up in the same manner. After incubation the medium in the control cultures and the mycoplasma positive cultures was replaced with fresh Medium 199 containing 1.68 g of sodium bicarbonate and 1% horse serum. The cultures were then treated with solutions of tylosin, tobramycin, and with the combination of tylosin and tobramycin in Medium 199 containing 1.68 g of sodium bicarbonate per liter. Solutions of each individual antibiotic and of the combination at a concentration of 1000 µg/ml were prepared. […] By two-fold serial dilution solutions at various concentrations down to 0.39 µg/ml were prepared. Each of the antibiotic solutions was added to a separate flask containing the tissue culture.
The tissue culture medium was replaced in each flask twice a week and at each medium change for two weeks a fresh solution of the antibiotic at the same concentration was added. After two weeks fresh medium replacements were made for two more weeks without the addition of antibiotic. Samples of each culture were taken before each medium replacement and were cultured to determine the presence of mycoplasma.

M. Hyorhinis = test: as above; type: cell-based; details: LLC-MK2 tissue culture contaminated with M. Hyorhinis, combinations contain equal amounts of each antibiotic
Protocol: as §1, §2
Cell suspensions of LLC-MK2 (Monkey kidney cell line) in Medium 199 containing 1% house serum of 4 ml volumes in tissue culture flasks were inoculated with a 3 day old culture of Mycoplasma hyorhinis (5 x 10^8 organism per ml in Eaton's broth). Approximately 2 to 3% of the mycoplasma culture per volume of the cell suspension was used. After inoculation the cell suspensions were incubated at a temperature of 37°C for from three to five days. Control cultures were also made up in the same manner. […]

M. gallisepticum 41313 = test: as above; type: cell-based; details: Mycoplasmoides gallisepticum; LLC-MK2 tissue culture contaminated with M. gallisepticum 41313 (chicken mycoplasma); combinations contain equal amounts of each antibiotic
Protocol: as §1, §2

M. gallisepticum 36 F = test: as above; type: cell-based; details: LLC-MK2 tissue culture contaminated with M. gallisepticum 36 F (chicken mycoplasma), combinations contain equal amounts of each antibiotic
Protocol: as §1, §2

[3] = 110 ppm of each antibiotic in feed
[4] = LLC-MK2 tissue culture contaminated with M. Hyorhinis HH (isolate from human heart tissue), combinations contain equal amounts of each antibiotic
[5] = LLC-MK2 tissue culture contaminated with M. Hyorhinis HH (isolate from human heart tissue), combinations contain equal amounts of each antibiotic, read-out: Minimal inhibitory concentration

CC[C@H]1OC(=O)C[C@@H](O)[C@H](C)[C@@H](O[C@@H]2O[C@H](C)[C@@H](O[C@H]3C[C@@](C)(O)[C@@H](O)[C@H](C)O3)[C@H](N(C)C)[C@H]2O)[C@@H](CC=O)C[C@@H](C)C(=O)/C=C/C(C)=C/[C@@H]1CO[C@@H]1O[C@H](C)[C@@H](O)[C@@H](OC)[C@H]1OC [Tylosin]
mean diarrhoea scores vs time in days (incidence of diarrhoea) (E. coli; plot in the accompanying drawing, 110 ppm of each antibiotic in feed): some effectiveness | Diarrhoea index (E. coli): 2.10 | Percent increase over controls: Reduction of diarrhoea (E. coli; [3]): 26.4% | Percent increase over controls: Average daily weight gain (E. coli; [3]): 29.7% | Percent increase over controls: Improved feed efficiency (E. coli; [3]): 11.4% | Average daily feed (E. coli): 0.51 kg | Average daily gain (E. coli): 0.31 kg | Feed efficiency (E. coli): 1.62 | MIC (Swine L3F12F7): 200 µg/mL | MIC (M. Hyorhinis HEK): > 200 µg/mL | MIC [1]: 50 µg/mL | Daily feed intake (Rel) [2]: (100) percentage | Daily gain (Rel) [2]: (106) percentage | Feed efficiency (Rel) [2]: (97) percentage | Final weight (Rel) [2]: (102) percentage | Daily feed intake x̄ (kg) per animal [2]: 0,92 kg | Daily gain x̄ (g) per animal [2]: 449 g | Feed efficiency x̄ (kg feed/kg gain) [2]: 2,07 kg feed/kg gain | Final weight x̄ (kg) per animal [2]: 25,58 kg | Minimal inhibitory concentration (M. Hyorhinis HH; [4]): 200 µg/mL

CO[C@@H]1[C@@H](O[C@@H]2O[C@H](C)[C@@H](O[C@H]3C[C@@](C)(O)[C@@H](OC(=O)CC(C)C)[C@H](C)O3)[C@H](N(C)C)[C@H]2O)[C@@H](CC=O)C[C@@H](C)[C@@H](O)/C=C/C=C/C[C@@H](C)OC(=O)C[C@H]1O [Leucomycin]
Minimal inhibitory concentration (M. Hyorhinis HH; [4]): >400 µg/mL | MIC (M. Hyorhinis HH; [5]): 400 µg/mL

Neomycin
Minimal inhibitory concentration (M. Hyorhinis): 100 µg/mL

NC[C@H]1O[C@H](O[C@H]2[C@H](O)[C@@H](O[C@H]3O[C@H](CO)[C@@H](O)[C@H](N)[C@H]3O)[C@H](N)C[C@@H]2N)[C@H](N)C[C@@H]1O [Tobramycin]
MIC (M. Hyorhinis; Mesomycoplasma hyorhinis): 100 µg/mL | MIC (Swine L3F12F7): 50 µg/mL | MIC (M. gallisepticum 41313): 200 µg/mL | MIC (M. gallisepticum 36 F; Mycoplasmoides gallisepticum): 100 µg/mL | MIC (M. Hyorhinis HEK): > 500 µg/mL | MIC (M. Hyorhinis HH; Example 4, procedure of Example 1, LLC-MK2 tissue culture, read-out: MIC): 200 µg/mL

NC[C@H]1O[C@H](O[C@H]2[C@H](O)[C@@H](O[C@H]3O[C@H](CO)[C@@H](O)[C@H](N)[C@H]3O)[C@H](N)C[C@@H]2N)[C@H](N)[C@@H](O)[C@@H]1O [Nebramycin Factor 5]
Minimal inhibitory concentration (M. Hyorhinis HH; [4]): 200 µg/mL

CO[C@H]1C[C@H](O[C@H]2[C@H](C)[C@@H](O[C@@H]3O[C@H](C)C[C@H](N(C)C)[C@H]3O)[C@@H](C)C[C@@]3(CO3)C(=O)[C@H](C)[C@@H](O)[C@@H](C)[C@@H](C)OC(=O)[C@@H]2C)O[C@@H](C)[C@@H]1O [Oleandomycin]
MIC (M. Hyorhinis HH; [5]): 400 µg/mL

Gentamicin
Minimal inhibitory concentration (M. Hyorhinis): 100 µg/mL

Tylosin tartrate
Minimal inhibitory concentration (M. gallisepticum 36 F): >800 µg/mL | Minimal inhibitory concentration (M. Hyorhinis HH; [4]): 200 µg/mL

NCC1OC(OC2C(N)CC(N)C(OC3OC(CO)C(O)C(N)C3O)C2O)C(N)CC1O (stereo not drawn) [Tobramycin sulfate]
MIC (M. Hyorhinis HH; [5]): 200 µg/mL

Spiromycin
Minimal inhibitory concentration (M. Hyorhinis HH; [4]): >800 µg/mL

CN[C@@H]1[C@@H](O[C@H]2O[C@H](CO)[C@@H](N)[C@H](O)[C@H]2O)OC2C[C@@H](N)[C@@H](O[C@H]3[C@H](O)[C@@H](O)[C@H](N)C[C@@H]3N)OC2[C@@H]1O (stereo partly drawn) [Apramycin]
Diarrhoea index (E. coli): 1.64 | Percent increase over controls: Reduction of diarrhoea (E. coli; [3]): 42.8% | Percent increase over controls: Average daily weight gain (E. coli; [3]): 19.0% | Percent increase over controls: Improved feed efficiency (E. coli; [3]): 10.3% | Average daily feed (E. coli): 0.47 kg | Average daily gain (E. coli): 0.29 kg | Feed efficiency (E. coli): 1.64 | MIC [1]: 25 µg/mL | Daily feed intake (Rel) [2]: (100) percentage | Daily gain (Rel) [2]: (110) percentage | Feed efficiency (Rel) [2]: (92) percentage | Final weight (Rel) [2]: (102) percentage | Daily feed intake x̄ (kg) per animal [2]: 0,92 kg | Daily gain x̄ (g) per animal [2]: 467 g | Feed efficiency x̄ (kg feed/kg gain) [2]: 1,96 kg feed/kg gain | Final weight x̄ (kg) per animal [2]: 25,62 kg | MIC (M. Hyorhinis HH; [5]): 600 µg/mL

Magnamycin
Minimal inhibitory concentration (M. Hyorhinis HH; [4]): >800 µg/mL
